According to patent US12146143B2, “Method for producing transformed plant and transformation agent” (priority 2019, dated 2024):

Assays:
[1] = system: quinoa (Kd, ghy, rebc, and ghy/rebc); assay: Floral dip/non-cutting-sealing method using improved bacterium, GUS staining of female organs; assay type: in vivo, Chenopodium quinoa; conditions: mutant ghy/rebc
Procedure: Bacteria used in the experiment were streaked on LB solid medium supplemented with 100 mg/L kanamycin and 100 mg/L hygromycin, and was cultured at 26° C. under a 24-h dark condition for 2 days (Table 3). The proliferated bacteria were transferred to 50 mL of LB liquid medium supplemented with 100 mg/L kanamycin and 100 mg/L hygromycin (in a 300 mL Erlenmeyer flask), and were cultured using a shaking thermostatic water bath BW201 under the conditions of 26° C., about 24 hours, and about 130 rpm. After the culture, the bacterial culture suspension (OD600=about 2.0) was transferred to a 50 mL conical tube, and centrifuged using Mx-301 Highspeed Refrigerated Micro Centrifuge (10 minutes, […]). The supernatant was discarded, followed by addition of 20 mL of a 5% (w/v) sucrose solution containing Silwet L-77 and resuspension using VORTEX-GENIE 2 to produce a bacterial suspension (results shown in Example 1 and results shown in Example 3 were obtained by inoculation experiments using Silwet L-77 at 0.02% (v/v) and 0.04% (v/v), respectively). At the time of inoculation with the bacterial suspension, quinoa to be used was placed in a sealed container (Mippail (Fuji System Pack, Tokyo, Japan)) filled with water, and the bacterial suspension was dropped onto an ear using P200 Pipetman (Gilson, Manhattan, NY, USA). […]

[2] = system: calluses of the mutant ghy; assay: Redifferentiation from calluses with plant hormones; assay type: cell-based, Chenopodium quinoa
Procedure: A medium was produced by partially modifying spinach redifferentiation medium composition reported in the literature (Jinhua Bao (2009) Establishment of Transformation System for Spinach based on Agrobacterium Method and Introduction of Useful Gene, Chiba University Graduate School doctoral dissertation), and was used in the experiment (Table 2). Non-transformed calluses induced from seedling sections of the Kd variety were cultured under preset conditions shown in Table 13. A “+” group for the redifferentiation inducing light condition was cultured in an incubator at 20° C. under 8-h light/16-h dark conditions, and a “−” group was placed in a steel can in an incubator under the same conditions, and was cultured under a light-shielding condition. In groups with GA concentrations of 1 and 2, non-transformed calluses were plated on redifferentiation media supplemented with gibberellin at 1 mg/L and 2 mg/L, respectively.
Transformed calluses were successfully formed in the mutant ghy variety incapable of synthesizing betalain pigments. In view of this, an attempt was made to induce redifferentiation from calluses of the mutant ghy. 2,4-Dichlorophenoxyacetic acid (2,4-D) serving as a plant hormone having an auxin-like action, and benzyladenine and kinetin each serving as a plant hormone having a cytokinin-like action were combined at various concentrations, and redifferentiation was attempted. […] In addition, when the concentrations of both of 2,4-D and the cytokinin-like plant hormone (benzyladenine or kinetin) were increased, hard and rounded calluses were obtained. […] However, redifferentiation of any other organ was not found.

CC1=CC(=O)CC(C)(C)[C@@]1(O)/C=C/C(C)=C\C(=O)O [ABA, Abscisic acid]
Individuals exhibiting female organ-specific GUS expression ([1]; 500 mM ABA added to suspension of MAFF311303pTiMAFF301276ΔT-DNA, without cutting-sealing): 60% | Female organ-specific GUS expression ratio relative to the case of adding no ABA ([1]; 500 mM ABA vs no ABA): 6 times

O=C(O)COc1ccc(Cl)cc1Cl [2,4-D, 2,4-Dichlorophenoxyacetic acid]
Redifferentiation of adventitious roots ([2]; medium containing only 0.01 mg/L or 0.1 mg/L 2,4-D): adventitious roots were redifferentiated

c1ccc(CNc2ncnc3nc[nH]c23)cc1 [benzyladenine]
Colour of calluses ([2]; calluses plated in media containing the hormone): turned darker green | Redifferentiation of adventitious roots ([2]; medium containing only 1 mg/L or 2 mg/L benzyladenine): adventitious roots were redifferentiated

c1coc(CNc2ncnc3[nH]cnc23)c1 [kinetin]
Elongation of adventitious roots ([2]; medium containing only 1 mg/L kinetin): showed remarkable elongation of adventitious roots
